Reference: US8822486B2, “Spiropiperidine compounds” (Eli Lilly and Company, priority 2009, dated 2014)

Assays:
[1] = biological target: T1, PPARδ (Homo sapiens, UniProt Q03181); test: PPARδ binding assay (SPA); conditions: concentrations up to 10 μM
T1 construct: made in house; host or cells: HEK293 (cell lysates)
T1 sequence (Q03181 1-441): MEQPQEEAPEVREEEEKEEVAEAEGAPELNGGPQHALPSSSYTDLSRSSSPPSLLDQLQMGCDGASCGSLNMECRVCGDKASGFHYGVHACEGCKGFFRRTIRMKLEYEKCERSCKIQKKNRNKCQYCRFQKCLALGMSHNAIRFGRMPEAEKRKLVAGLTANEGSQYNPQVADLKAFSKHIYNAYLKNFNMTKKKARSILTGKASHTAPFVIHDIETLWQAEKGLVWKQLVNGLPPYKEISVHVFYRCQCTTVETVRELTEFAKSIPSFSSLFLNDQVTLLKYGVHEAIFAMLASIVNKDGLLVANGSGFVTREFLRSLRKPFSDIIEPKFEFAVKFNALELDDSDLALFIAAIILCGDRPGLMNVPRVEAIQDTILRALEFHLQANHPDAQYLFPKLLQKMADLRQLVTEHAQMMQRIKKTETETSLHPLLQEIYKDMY
T1 sequence (P19793 1-462 partner): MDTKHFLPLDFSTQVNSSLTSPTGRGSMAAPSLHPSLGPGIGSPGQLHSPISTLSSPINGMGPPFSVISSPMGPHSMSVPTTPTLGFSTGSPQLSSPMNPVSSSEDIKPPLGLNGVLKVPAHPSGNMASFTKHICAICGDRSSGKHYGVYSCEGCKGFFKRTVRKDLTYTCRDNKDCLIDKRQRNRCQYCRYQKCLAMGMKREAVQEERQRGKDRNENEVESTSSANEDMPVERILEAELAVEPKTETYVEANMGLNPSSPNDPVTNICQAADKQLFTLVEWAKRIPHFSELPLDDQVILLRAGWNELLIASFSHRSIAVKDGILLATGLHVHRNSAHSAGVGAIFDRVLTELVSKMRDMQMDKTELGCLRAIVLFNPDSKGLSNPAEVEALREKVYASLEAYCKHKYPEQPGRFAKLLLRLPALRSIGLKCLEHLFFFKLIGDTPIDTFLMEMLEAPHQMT
Method: Because GPR40 is known to be activated by ligands to PPARγ exemplified compounds are examined in PPARα, PPARδ, and PPARγ binding and functional assays to determine the selectivity of exemplified compounds for GPR40. Compounds exemplified herein are tested essentially as described below for PPAR binding and generally have binding values greater than 1000 nM with 10 μM concentrations of test compound and are thus considered negative for PPAR activity.
Binding affinities of compounds for the PPAR α, δ, and γ receptors are assessed using Scintillation Proximity Assay (SPA) technology. Biotinylated oligonucleotide Direct Repeat 2 (DR2) is used for binding the receptors to Yttrium silicate streptavidin-coated SPA beads. […] Non-specific binding is determined in the presence of 10,000 nM of the unlabeled PPAR α/δ dual agonist reference compound for the alpha and delta receptor assays and the PPARγ agonist reference compound for the gamma receptor assay. The binding reaction (100 μl per well in a 96 well [Costar 3632] plate) is incubated for 10 h and counted disintegration per minutes (dpm) on a Wallac Microbeta. Receptor binding affinity (IC50) for the compounds is determined by fitting an 11 point concentration-response curve with a 4-paramater logistic equation. K, is determined from the IC50 using the Cheng-Prussoff equation and Kd determined by saturation binding. […]

[2] = test system: Male Balb/c mice; test: Intraperitoneal Glucose Tolerance Test (IPGTT); type: in vivo, mouse; conditions: oral
Method: To examine the ability of exemplified compounds to activate GPR40 in-vivo resulting in anti-diabetic efficacy, i.e. an increase in insulin and reduction in glucose levels, a 4-day intraperitoneal glucose tolerance test (ipGTT) study is completed with each compound tested in the IPGTT.
Male Balb/c (Albino mice) mice (8-9 weeks of age) are single housed and fed with normal rodent chow diet and water ad libitum. Animals are weighed and randomized by body weight and daily body weights are recorded. Upon study initiation, animals are dosed once per day orally for three days using a formulation carrying methylcellulose and tween-80. On the night before the 4-day IPGTT study, animals are fasted overnight in clean cages. On the morning of the IPGTT (Day 4), animals are dosed orally with compound or vehicle alone 60 minutes prior to the IPGTT (glucose 2 g/kg, i.p.). Blood glucose levels are determined from tail bleeds taken at 0, 3, 7, 15, 30, and 60 min after glucose challenge. Plasma is isolated and used to estimate respective insulin levels. The blood glucose excursion profile from t=0 to t=60 min is used to integrate an area under the curve (AUC) for each treatment. Percent lowering in glucose is calculated from the AUC data of the compounds with respect to the AUC of vehicle group. The test compound is orally administered at 0.1, 0.3, 1.0, 3.0, or 10 mg/kg, and a positive control is administered at 10 mg/kg.

[3] = Example 1 at 0.1, 0.3, 1.0 and 3.0 mg/kg, positive control 10 mg/kg

CC#C[C@@H](CC(=O)O)c1ccc(OCc2ccc(CN3CCC4(C=Cc5ccccc54)CC3)s2)cc1 [Example 1, (3S)-3-[4-[[5-(Spiro[indene-1,4′-piperidine]-1′-ylmethyl)-2-thienyl]methoxy]phenyl]hex-4-ynoic acid]
PPARδ binding [1]: no binding is detected | ED50 ([2]; Mus musculus, once per day, 4-day study, glucose 2 g/kg i.p., AUC t=0 to 60 min, read-out: ED50 based on AUCs for glucose lowering): 0.21 mg/kg | glucose levels at the 3 minute time point ([2]; Example 1 0.1, 0.3, 1.0, 3.0 or 10 mg/kg, positive control 10 mg/kg): No concentration of the compound of Example 1 or the positive control significantly lowered glucose levels | glucose levels at the 15 minute time point ([2]; Example 1 at 0.1, 0.3, 1.0 and 3.0 mg/kg): significantly lowered | glucose levels at the 30 minute time point [2, 3]: significantly lowered | glucose levels at the 60 minute time point [2, 3]: significantly lowered | glucose levels at the 7 minute time point ([2]; Example 1 at 0.3, 1.0, 3.0 and 10 mg/kg, positive control 10 mg/kg): significantly lowered | insulin levels ([2]; at the 3.0 and 10.0 mg/kg dose): significantly elevated
